Literature values as cited in US10781471B2, “NRAS related cancer therapy” (Ruijin Hospital Affiliated to Shanghai Jiao Tong University …, priority 2014, dated 2020).

Test system: acute lymphoblastic leukemia (ALL)
Details: methotrexate 3.3 mg/m^2 in combination with 60 mg/m^2 of prednisone, given daily; induction in ALL patients

For `CN(Cc1cnc2nc(N)nc(N)c2n1)c1ccc(C(=O)N[C@@H](CCC(=O)O)C(=O)O)cc1` [methotrexate, Methotrexate], the “period within which remission was usually produced” value is listed as 4 to 6 weeks and the “remissions, share of patients treated” value is listed as 50%.
